Like-named read-outs stand apart in the source and are kept apart here.
Key:
Format in all cases: in vivo
Spodoptera littoralis = Spodoptera littoralis (Egyptian Cotton Leafworm) cotton leaf disc spray test; settings: foliar, 72 h, 200 ppm spray on cotton leaf discs, L1 larvae, mortality, feeding behavior, growth regulation 3 DAT
Plutella xylostella = Plutella xylostella (Diamond Back Moth) artificial diet MTP test; settings: 144 h, 200 ppm (concentration in well 18 ppm), L2 larvae, 6 days, larval mortality, growth regulation
Thrips tabaci = Thrips tabaci (Onion Thrips) sunflower leaf disc spray test; settings: foliar, 168 h, 200 ppm spray on sunflower leaf discs, population of mixed ages, 7 days, mortality
Tetranychus urticae = Tetranychus urticae (Two-Spotted Spider Mite) bean leaf disc spray test; settings: foliar, 192 h, read-out: control of Tetranychus urticae
Heliothis virescens = Heliothis virescens (Tobacco Budworm) egg test on artificial diet; settings: 96 h, 200 ppm (concentration in well 18 ppm), eggs 0-24 h old on artificial diet, 4 days, egg mortality, larval mortality, growth regulation
Diabrotica balteata = Diabrotica balteata (Corn Root Worm) artificial diet MTP test; settings: 120 h, 200 ppm (concentration in well 18 ppm), L2 larvae, 5 days, larval mortality, growth regulation
[1] = 200 ppm spray on bean leaf discs, mite populations of mixed ages, 8 days, egg, larval and adult mortality

Measured: pest or weed control at 200 ppm

CCc1cc(C(F)(C(F)(F)F)C(F)(F)C(F)(F)F)cc(C)c1NC(=O)c1cccc(NC(=O)c2cccc([N+](=O)[O-])c2C)c1OC (centres unmarked) [A2, N-[2-ethyl-4-(1,2,2,3,3,3-hexafluoro-1-trifluoromethylpropyl)-6-methylphenyl]-3-(2-methyl-3-nitrobenzoylamino)-2-methoxybenzamide]
≥ 80%: Spodoptera littoralis | Plutella xylostella | Thrips tabaci | Tetranychus urticae; [1]

COc1c(NC(=O)c2ccc([N+](=O)[O-])o2)cccc1C(=O)Nc1c(Cl)cc(C(F)(C(F)(F)F)C(F)(F)C(F)(F)F)cc1Br (centres unmarked) [B61]
≥ 80%: Spodoptera littoralis | Heliothis virescens | Plutella xylostella | Diabrotica balteata | Tetranychus urticae; [1]

COc1c(NC(=O)c2cccc([N+](=O)[O-])c2C)cccc1C(=O)Nc1c(Cl)cc(C(F)(C(F)(F)F)C(F)(F)C(F)(F)F)cc1Br (centres unmarked) [B69]
≥ 80%: Spodoptera littoralis | Heliothis virescens | Plutella xylostella | Diabrotica balteata | Tetranychus urticae; [1]

COc1c(NC(=O)c2sc(C)nc2C)cccc1C(=O)Nc1c(Cl)cc(C(F)(C(F)(F)F)C(F)(F)C(F)(F)F)cc1Br (centres unmarked) [B96]
≥ 80%: Spodoptera littoralis | Heliothis virescens | Plutella xylostella | Diabrotica balteata | Tetranychus urticae; [1]

COc1c(NC(=O)c2c(Cl)cccc2Cl)cccc1C(=O)Nc1c(Cl)cc(C(F)(C(F)(F)F)C(F)(F)C(F)(F)F)cc1Br (centres unmarked) [B158]
≥ 80%: Spodoptera littoralis | Heliothis virescens | Plutella xylostella | Diabrotica balteata | Tetranychus urticae; [1]

COc1c(NC(=O)c2c(C)cc(Br)cc2Cl)cccc1C(=O)Nc1c(Cl)cc(C(F)(C(F)(F)F)C(F)(F)C(F)(F)F)cc1Br (centres unmarked) [B159]
≥ 80%: Spodoptera littoralis | Heliothis virescens | Plutella xylostella | Diabrotica balteata | Tetranychus urticae; [1]

COc1c(NC(=O)c2ccc([N+](=O)[O-])c(Cl)c2)cccc1C(=O)Nc1c(Cl)cc(C(F)(C(F)(F)F)C(F)(F)C(F)(F)F)cc1Br (centres unmarked) [B170]
≥ 80%: Spodoptera littoralis | Heliothis virescens | Plutella xylostella | Diabrotica balteata | Tetranychus urticae; [1]

COc1c(NC(=O)c2ccc([N+](=O)[O-])c(C(F)(F)F)c2)cccc1C(=O)Nc1c(Cl)cc(C(F)(C(F)(F)F)C(F)(F)C(F)(F)F)cc1Br (centres unmarked) [B179]
≥ 80%: Spodoptera littoralis | Heliothis virescens | Plutella xylostella | Diabrotica balteata | Tetranychus urticae; [1]

COc1c(NC(=O)c2cccnc2F)cccc1C(=O)Nc1c(Cl)cc(C(F)(C(F)(F)F)C(F)(F)C(F)(F)F)cc1Br (centres unmarked) [B194]
≥ 80%: Spodoptera littoralis | Heliothis virescens | Plutella xylostella | Diabrotica balteata | Tetranychus urticae; [1]

COc1c(NC(=O)c2ccc([N+](=O)[O-])c([N+](=O)[O-])c2)cccc1C(=O)Nc1c(Cl)cc(C(F)(C(F)(F)F)C(F)(F)C(F)(F)F)cc1Br (centres unmarked) [B195]
≥ 80%: Spodoptera littoralis | Heliothis virescens | Plutella xylostella | Tetranychus urticae

COc1c(NC(=O)c2ccc(C#N)cc2Cl)cccc1C(=O)Nc1c(Cl)cc(C(F)(C(F)(F)F)C(F)(F)C(F)(F)F)cc1Br (centres unmarked) [B198]
≥ 80%: Spodoptera littoralis | Heliothis virescens | Plutella xylostella | Tetranychus urticae; [1]

COc1c(NC(=O)c2ccco2)cccc1C(=O)Nc1c(Cl)cc(C(F)(C(F)(F)F)C(F)(F)C(F)(F)F)cc1Cl (centres unmarked) [C12]
≥ 80%: Spodoptera littoralis | Heliothis virescens | Plutella xylostella | Diabrotica balteata | Tetranychus urticae; [1]

COc1c(NC(=O)c2cc(F)c(C#N)cc2F)cccc1C(=O)Nc1c(Cl)cc(C(F)(C(F)(F)F)C(F)(F)F)cc1Cl [E24]
≥ 80%: Spodoptera littoralis | Heliothis virescens | Plutella xylostella | Diabrotica balteata | Tetranychus urticae; [1]

COc1c(NC(=O)c2ccccc2F)cccc1C(=O)Nc1c(C)cc(C(F)(C(F)(F)F)C(F)(F)C(F)(F)F)cc1C (centres unmarked) [F1]
≥ 80%: Spodoptera littoralis | Heliothis virescens | Plutella xylostella | Diabrotica balteata | Tetranychus urticae; [1]

COc1c(NC(=O)c2ccc(OC(F)(F)F)cc2)cccc1C(=O)Nc1c(C)cc(C(F)(C(F)(F)F)C(F)(F)C(F)(F)F)cc1C (centres unmarked) [F5]
≥ 80%: Spodoptera littoralis | Heliothis virescens | Plutella xylostella | Tetranychus urticae; [1]

COc1c(NC(=O)c2ccc(Cl)cc2Cl)cccc1C(=O)Nc1c(C)cc(C(F)(C(F)(F)F)C(F)(F)C(F)(F)F)cc1C (centres unmarked) [F15]
≥ 80%: Spodoptera littoralis | Heliothis virescens | Plutella xylostella | Diabrotica balteata | Tetranychus urticae; [1]

COc1c(NC(=O)c2ccc(S(C)(=O)=O)cc2)cccc1C(=O)Nc1c(C)cc(C(F)(C(F)(F)F)C(F)(F)C(F)(F)F)cc1C (centres unmarked) [F18]
≥ 80%: Spodoptera littoralis | Heliothis virescens | Plutella xylostella | Diabrotica balteata | Tetranychus urticae; [1]

COc1c(NC(=O)c2ccc([N+](=O)[O-])cc2C)cccc1C(=O)Nc1c(C)cc(C(F)(C(F)(F)F)C(F)(F)C(F)(F)F)cc1C (centres unmarked) [F24]
≥ 80%: Spodoptera littoralis | Heliothis virescens | Plutella xylostella | Diabrotica balteata | Tetranychus urticae; [1]

COc1c(NC(=O)c2c(F)cc(F)cc2F)cccc1C(=O)Nc1c(C)cc(C(F)(C(F)(F)F)C(F)(F)C(F)(F)F)cc1C (centres unmarked) [F25]
≥ 80%: Spodoptera littoralis | Heliothis virescens | Plutella xylostella | Diabrotica balteata | Tetranychus urticae; [1]

COc1c(NC(=O)c2ccc(F)cc2C)cccc1C(=O)Nc1c(C)cc(C(F)(C(F)(F)F)C(F)(F)C(F)(F)F)cc1C (centres unmarked) [F27]
≥ 80%: Spodoptera littoralis | Heliothis virescens | Plutella xylostella | Diabrotica balteata | Tetranychus urticae; [1]

COc1c(NC(=O)c2ccc([N+](=O)[O-])cc2Cl)cccc1C(=O)Nc1c(C)cc(C(F)(C(F)(F)F)C(F)(F)C(F)(F)F)cc1C (centres unmarked) [F28]
≥ 80%: Spodoptera littoralis | Heliothis virescens | Diabrotica balteata | Tetranychus urticae; [1]

COc1c(NC(=O)c2ccc(C#N)cc2C)cccc1C(=O)Nc1c(Cl)cc(C(F)(C(F)(F)F)C(F)(F)F)cc1Br [G1]
≥ 80%: Spodoptera littoralis | Heliothis virescens | Plutella xylostella | Diabrotica balteata | Tetranychus urticae; [1]

COc1c(NC(=O)c2ccc(C#N)cc2Cl)cccc1C(=O)Nc1c(Cl)cc(C(F)(C(F)(F)F)C(F)(F)F)cc1Br [G2]
≥ 80%: Spodoptera littoralis | Heliothis virescens | Plutella xylostella | Diabrotica balteata | Tetranychus urticae; [1]

CCc1cc(C(F)(C(F)(F)F)C(F)(F)F)cc(C)c1NC(=O)c1cccc(NC(=O)c2c(F)cc(C#N)cc2F)c1OC [J2]
≥ 80%: Heliothis virescens | Plutella xylostella | Diabrotica balteata | Tetranychus urticae; [1]

COc1c(NC(=O)c2ccc(C#N)cc2C)cccc1C(=O)Nc1c(C)cc(C(F)(C(F)(F)F)C(F)(F)F)cc1C [K4]
≥ 80%: Spodoptera littoralis | Heliothis virescens | Plutella xylostella | Diabrotica balteata | Tetranychus urticae; [1]
